Results published in PubChem BioAssay AID248 (DTP/NCI, 2004).
Values joined by “and” are separate entries in the source; they are usually repeats but may differ in a detail not shown here. Equal values may be shown once. Toxic doses and inconclusive results are not listed. Rule as the data show it: active = T/C of 150% or more; inactive = T/C below 125%.

Test system: L1210 leukemia ip in BDF1 mice, survival T/C
Experiment: NCI In Vivo Anticancer Drug Screen. Data for tumor model L1210 Leukemia (intraperitoneal) in B6D2F1 (BDF1) mice
Settings: endpoint: mean survival time, higher = longer survival
In short: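 Read-out is survival time, reported as the treated-group measurement over the vehicle-control measurement.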

[1] = dose: 100.0 mg/kg/injection, schedule: Q04DX003 (ip), vehicle: Klucel (hydroxypropylcellulose) (HPC)
[2] = dose: 200.0 mg/kg/injection, schedule: Q04DX003 (ip), vehicle: Klucel (hydroxypropylcellulose) (HPC)
[3] = dose: 400.0 mg/kg/injection, schedule: Q04DX003 (ip), vehicle: Klucel (hydroxypropylcellulose) (HPC)
[4] = dose: 100.0 mg/kg/injection, schedule: Q01DX001 (ip), vehicle: Klucel (hydroxypropylcellulose) (HPC)
[5] = dose: 200.0 mg/kg/injection, schedule: Q01DX001 (ip), vehicle: Klucel (hydroxypropylcellulose) (HPC)
[6] = dose: 400.0 mg/kg/injection, schedule: Q01DX001 (ip), vehicle: Klucel (hydroxypropylcellulose) (HPC)
[7] = dose: 100.0 mg/kg/injection, schedule: Q04DX002 (ip), vehicle: saline
[8] = dose: 200.0 mg/kg/injection, schedule: Q04DX002 (ip), vehicle: saline
[9] = dose: 100.0 mg/kg/injection, schedule: Q01DX009 (ip), vehicle: saline

Measured: T/C

O=[N+]([O-])c1ccc2c(c1)c(-c1cccc3ccccc13)nc1ccccc12
inactive: dose: 100.0 mg/kg/injection, schedule: Q04DX003 (ip), vehicle: saline with Tween-80 95 % of control | dose: 200.0 mg/kg/injection, schedule: Q04DX003 (ip), vehicle: saline with Tween-80 93 % of control | dose: 400.0 mg/kg/injection, schedule: Q04DX003 (ip), vehicle: saline with Tween-80 91 % of control

O=C1CCC2(CCCc3c2ccc2ccccc32)O1 (stereo not given)
inactive: dose: 50.0 mg/kg/injection, schedule: Q04DX003 (ip), vehicle: saline 97 % of control | dose: 100.0 mg/kg/injection, schedule: Q04DX003 (ip), vehicle: saline 97 % of control | dose: 200.0 mg/kg/injection, schedule: Q04DX003 (ip), vehicle: saline 90 % of control

CC(C(=O)O)c1ccccc1 (stereo not given)
inactive: dose: 12.5 mg/kg/injection, schedule: Q01DX009 (ip), vehicle: saline with Tween-80 95 % of control | dose: 25.0 mg/kg/injection, schedule: Q01DX009 (ip), vehicle: saline with Tween-80 95 % of control | dose: 50.0 mg/kg/injection, schedule: Q01DX009 (ip), vehicle: saline with Tween-80 95 % of control and 90 % of control

N=c1c2ncn(Cc3cccc(C(F)(F)F)c3)c2ncn1O
inactive: dose: 0.78 mg/kg/injection, schedule: Q01DX009 (ip), vehicle: Klucel (hydroxypropylcellulose) (HPC) 104 % of control | dose: 1.56 mg/kg/injection, schedule: Q01DX009 (ip), vehicle: Klucel (hydroxypropylcellulose) (HPC) 92 % of control | dose: 1.56 mg/kg/injection, schedule: Q04DX003 (ip), vehicle: Klucel (hydroxypropylcellulose) (HPC) 92 % of control | dose: 3.12 mg/kg/injection, schedule: Q01DX009 (ip), vehicle: Klucel (hydroxypropylcellulose) (HPC) 95 % of control | dose: 3.12 mg/kg/injection, schedule: Q04DX003 (ip), vehicle: Klucel (hydroxypropylcellulose) (HPC) 102 % of control

COc1ccc(OC(=O)Nc2ccc(SC)cc2)cc1
inactive: dose: 100.0 mg/kg/injection, schedule: Q01DX009 (ip), vehicle: saline with Tween-80 104 % of control | [1] 96 % of control | dose: 200.0 mg/kg/injection, schedule: Q01DX009 (ip), vehicle: saline with Tween-80 90 % of control | [2] 96 % of control | dose: 400.0 mg/kg/injection, schedule: Q01DX009 (ip), vehicle: saline with Tween-80 98 % of control | [3] 102 % of control

O=C(Nc1ccccc1)N1CCC2N(C(=O)Nc3ccccc3)CCC3N(C(=O)Nc4ccccc4)CCC1N23 (stereo not given)
inactive: [1] 94 % of control | [2] 96 % of control | [3] 100 % of control

CC(=O)NCCOc1ccc([N+](=O)[O-])cc1Cl
inactive: [4] 100 % of control | [5] 110 % of control

O=P(Cc1ccccc1)(c1ccccc1)c1ccccc1
inactive: [1] 90 % of control | [2] 90 % of control | [3] 94 % of control

COc1cc(O)c2c(c1)Cc1cc(C)cc(O)c1C2=O
inactive: dose: 12.5 mg/kg/injection, schedule: Q04DX002 (ip), vehicle: Klucel (hydroxypropylcellulose) (HPC) 93 % of control | dose: 25.0 mg/kg/injection, schedule: Q04DX002 (ip), vehicle: Klucel (hydroxypropylcellulose) (HPC) 93 % of control

COc1cccc2c1C(=O)c1c(O)c3c(c(O)c1C2=O)C[C@@](O)(C(C)=O)C[C@@H]3OC1CC(NC(=S)Nc2ccc(F)cc2)C(O)C(C)O1 (stereo not given in full)
inactive: dose: 0.25 mg/kg/injection, schedule: Q04DX003 (ip), vehicle: other 100 % of control | dose: 0.5 mg/kg/injection, schedule: Q04DX003 (ip), vehicle: other 98 % of control | dose: 1.0 mg/kg/injection, schedule: Q04DX003 (ip), vehicle: other 104 % of control | dose: 2.0 mg/kg/injection, schedule: Q04DX003 (ip), vehicle: other 100 % of control | dose: 4.0 mg/kg/injection, schedule: Q04DX003 (ip), vehicle: other 112 % of control | dose: 6.0 mg/kg/injection, schedule: Q01DX009 (ip), vehicle: water 111 % of control | dose: 8.0 mg/kg/injection, schedule: Q04DX003 (ip), vehicle: other 112 % of control | dose: 12.0 mg/kg/injection, schedule: Q01DX009 (ip), vehicle: water 114 % of control | dose: 14.0 mg/kg/injection, schedule: Q04DX003 (ip), vehicle: water 108 % of control | dose: 16.0 mg/kg/injection, schedule: Q04DX003 (ip), vehicle: other 109 % of control | dose: 21.0 mg/kg/injection, schedule: Q04DX003 (ip), vehicle: water 108 % of control | dose: 23.0 mg/kg/injection, schedule: Q01DX009 (ip), vehicle: water 108 % of control | dose: 24.0 mg/kg/injection, schedule: Q01DX009 (ip), vehicle: water 116 % of control | dose: 39.0 mg/kg/injection, schedule: Q01DX009 (ip), vehicle: water 109 % of control | dose: 48.0 mg/kg/injection, schedule: Q01DX009 (ip), vehicle: water 122 % of control | dose: 50.0 mg/kg/injection, schedule: Q04DX003 (ip), vehicle: water 120 % of control | dose: 65.0 mg/kg/injection, schedule: Q01DX009 (ip), vehicle: water 109 % of control | dose: 108.0 mg/kg/injection, schedule: Q01DX009 (ip), vehicle: water 119 % of control | dose: 180.0 mg/kg/injection, schedule: Q01DX009 (ip), vehicle: water 104 % of control

NC(=O)Cc1cccc(=O)[nH]1
inactive: [4] 100 % of control | [5] 97 % of control | [6] 95 % of control

CCCCCCCCC(C)NCCO (stereo not given)
inactive: dose: 9.5 mg/kg/injection, schedule: Q01DX001 (ip), vehicle: saline 96 % of control | dose: 19.0 mg/kg/injection, schedule: Q01DX001 (ip), vehicle: saline 93 % of control | dose: 38.0 mg/kg/injection, schedule: Q01DX001 (ip), vehicle: saline 90 % of control

CCCCSCCSC(=N)N
inactive: dose: 25.0 mg/kg/injection, schedule: Q04DX002 (ip), vehicle: saline with Tween-80 100 % of control | dose: 50.0 mg/kg/injection, schedule: Q04DX002 (ip), vehicle: saline with Tween-80 103 % of control | dose: 100.0 mg/kg/injection, schedule: Q04DX002 (ip), vehicle: saline with Tween-80 103 % of control

O=C(Nc1ccc(Br)cc1)Nc1cccc(Cl)c1
inactive: [7] 103 % of control | [8] 103 % of control | dose: 400.0 mg/kg/injection, schedule: Q04DX002 (ip), vehicle: saline 96 % of control

O=C(CCNc1ccccc1)c1ccccc1
inactive: dose: 50.0 mg/kg/injection, schedule: Q01DX009 (ip), vehicle: saline 95 % of control | [9] 95 % of control | [7] 105 % of control | [8] 108 % of control

O=C1CN(C2OC(CO)C(O)C2O)C(=O)NC1=O (stereo not given)
inactive: dose: 132.0 mg/kg/injection, schedule: Q01DX Z (ip), vehicle: carboxymethylcellulose (CMC) 107 % of control | dose: 200.0 mg/kg/injection, schedule: Q01DX Z (ip), vehicle: carboxymethylcellulose (CMC) 110 % of control | dose: 299.0 mg/kg/injection, schedule: Q01DX Z (ip), vehicle: carboxymethylcellulose (CMC) 124 % of control | dose: 449.0 mg/kg/injection, schedule: Q01DX Z (ip), vehicle: carboxymethylcellulose (CMC) 107 % of control

CCCCCC(=O)O
inactive: [9] 100 % of control | dose: 200.0 mg/kg/injection, schedule: Q01DX009 (ip), vehicle: saline 98 % of control | dose: 400.0 mg/kg/injection, schedule: Q01DX009 (ip), vehicle: saline 89 % of control

Cc1ccc(S(=O)(=O)C=C(c2ccccc2)c2ccccc2)cc1
inactive: [4] 98 % of control | [1] 100 % of control | [5] 96 % of control | [2] 95 % of control | [6] 104 % of control | [3] 95 % of control

CC(=O)OC1COC(NC(=O)NCCCl)C(OC(C)=O)C1OC(C)=O (stereo not given)
inactive: [1] 109 % of control | [2] 103 % of control | [3] 103 % of control

COc1cc(Cc2nccc3cc(OC)c(OC)cc23)c(C(C)=O)c(OC)c1
inactive: dose: 5.0 mg/kg/injection, schedule: Q01DX009 (ip), vehicle: saline 113 % of control | dose: 10.0 mg/kg/injection, schedule: Q01DX009 (ip), vehicle: saline 118 % of control | dose: 20.0 mg/kg/injection, schedule: Q01DX009 (ip), vehicle: saline 109 % of control | dose: 40.0 mg/kg/injection, schedule: Q01DX009 (ip), vehicle: saline 99 % of control | dose: 80.0 mg/kg/injection, schedule: Q01DX009 (ip), vehicle: saline 95 % of control

CNC(=S)N/N=C/c1ccccn1
inactive: dose: 25.0 mg/kg/injection, schedule: Q04DX003 (ip), vehicle: Klucel (hydroxypropylcellulose) (HPC) 112 % of control | dose: 50.0 mg/kg/injection, schedule: Q04DX003 (ip), vehicle: Klucel (hydroxypropylcellulose) (HPC) 97 % of control | [1] 93 % of control | [2] 101 % of control
